Drawing on PMC7057948, “A genome-wide approach for identification and characterisation of metabolite-inducible systems” (Nature Communications, 2020), this text covers EC50 and activity for four molecules.

Assay [1] relates to T1, PhgR.
T1 construct: native full-length gene, divergent to operon starting at H16_RS05530; reporter plasmid pEH155 (plasmid assigned by list order)
Nature of the assay: RFP reporter dose-response in C. necator H16, Hill fit. It counts as cell-based, Cupriavidus necator. Particulars: inducer concentration for half-maximal activation; extracellular inducer, minimal medium, 30 °C, 80 min; whole cells with chromosomal regulator copy; read-out: Km^b.

Assay [2] deals with BenM. Description: cells. Further details: species or system Cupriavidus necator H16; RFP reporter induction by transcription factor biosensor, fluorescence normalised to cell density, relative to primary effector. Particulars: 6 h; relative to primary effector, C. necator, MM; read-out: % activation. Here is the method:
(§1) To screen the 441 combinations of inducer and biosensor for cross-reactivity, we employed an automated platform (see Methods section). Strains of C. necator harbouring the inducible systems were grown in MM and transferred to a 96-well microtiter plate format. After the inducers had been extracellularly added, cells were cultured for 6 h before RFP fluorescence and cell density were measured. […] The remaining six inducible systems were activated by one or more metabolites other than their cognate inducers. This cross-reactivity may be the result of either structural resemblance, a metabolic relationship or a combination thereof. For example, L-phenylalanine is converted into L-tyrosine by the phenylalanine 4-monooxygenase PhhA (H16_RS18365). Therefore, activation of the L-tyrosine-inducible system by L-phenylalanine is more likely to be due to biological conversion of the added compound into the primary effector rather than direct interaction of L-phenylalanine with HpdA. However, since the difference between the two molecules lies in a singly hydroxyl-group, an induction by structural resemblance cannot be entirely ruled out. The same applies to phenylglyoxylate that activated the benzoate-inducible system. Phenylglyoxylate is converted by C. necator into benzoate via a two-step reaction with benzaldehyde as intermediate compound. During the first reaction, carbon dioxide is generated that may also explain induction of the formate-inducible system by the structurally dissimilar phenylglyoxylate. Since carbon dioxide can subsequently be converted into formate, it is rational to postulate that the FdsR/PH16_RS03165-inducible system is activated in this case by its primary inducer. In addition to phenylglyoxylate, the benzoate-inducible system was activated by extracellular supplementation with cyclohexanecarboxylate and cumate. Cyclohexanecarboxylate shares both a structural resemblance to benzoate and downstream  Fig. 6 Orthogonality of inducible systems. a Cross-reactivity of a set of 21 inducible systems and their corresponding primary inducers. The heat map illustrates induction of reporter gene expression in the presence of the metabolite (in %) relative to the induction mediated by the corresponding primary effector. Measurements were taken 6 h after supplementation with inducer at a final concentration of 5 mM. Data are mean, n = 4. Source data are provided as a Source Data file. b Fluorescence output of individual cells of C. necator carrying pEH263 measured by flow cytometry. The vector pEH263 contains the 3,4-dihydroxybenzoate- and [compound left out]-inducible systems controlling expression of rfp and egfp, respectively. Fluorescence was determined in the absence of inducer (orange), in the presence of 3,4-dihydroxybenzoate (blue), [compound left out] (green), and both 3,4-dihydroxybenzoate and [compound left out] (purple). Effector concentrations correspond to their respective Km’s and fluorescence was measured 2 h after inducer addition.

Assay [3] concerns FdsR. Description: cells. Particulars: 6 h; relative to primary effector, C. necator, MM; read-out: % activation. Also noted: species or system Cupriavidus necator H16; RFP reporter induction by transcription factor biosensor, fluorescence normalised to cell density, relative to primary effector. Here is the method: as §1
The target of assay [4] is T2, BenM (Cupriavidus necator, UniProt Q0KAA5).
T2 construct: native full-length gene, divergent to operon starting at H16_RS09790; reporter plasmid pEH148 (plasmid assigned by list order)
T2 sequence (Q0KAA5 1-305): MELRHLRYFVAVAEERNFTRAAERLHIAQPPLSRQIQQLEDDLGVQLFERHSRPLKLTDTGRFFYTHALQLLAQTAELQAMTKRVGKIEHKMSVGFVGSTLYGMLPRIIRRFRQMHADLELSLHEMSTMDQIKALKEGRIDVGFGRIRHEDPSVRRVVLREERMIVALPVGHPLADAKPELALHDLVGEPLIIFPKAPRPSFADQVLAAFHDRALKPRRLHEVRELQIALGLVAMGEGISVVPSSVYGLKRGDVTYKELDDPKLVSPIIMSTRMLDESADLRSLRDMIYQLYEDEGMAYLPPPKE
Nature of the assay: cell-based. Further details: RFP reporter induction by transcription factor biosensor, single time-point fluorescence in LB, relative to primary effector. The note with it: Escherichia coli TOP10; relative to primary effector, E. coli, LB; read-out: % activation. The source says:
(§2) TRs often recognise molecules that are structurally similar to their primary effectors. For example, isopropyl β-D-1-thiogalactopyranoside is a commonly used structural analogue of allolactose, employed to control the expression of genes regulated by LacI. Here, the TR’s specificity was investigated to identify previously uncharacterised ligand–TR interactions and consequently extend the biosensor application to the detection of structurally similar or metabolically related compounds. To do so, the library of 21 native and heterologous inducible systems was screened against 46 compounds using an integrated robotic platform, as described in the previous section. […] Similarly to the former orthogonality screen (Fig. 6a), it should be noted that activation of reporter gene expression by the extracellularly added compounds likely indicates a structural resemblance to the primary ligand, a metabolic relationship or a combination thereof. To shed light on their cause of system activation, cultures of E. coli carrying the functional formate-, [compound left out]-, benzoate-, 3,4-dihydroxybenzoate-, acetoin- and β-alanine-inducible systems, active in this host organism, were evaluated for the same cross-reactivity (Supplementary Table 5).  Fig. 3 C. necator native systems mediate controllable gene expression in E. coli and P. putida. Single time-point fluorescence measurements of a, b E. coli and c, d P. putida carrying the C. necator-inducible gene expression systems composed of TR and promoter a, c or ‘promoter only’ version b, d. The plasmids harbouring the individual system– or promoter–reporter gene constructs are indicated. RFP fluorescence output was determined in the absence of inducer (light purple and light blue) and 6 h after extracellular supplementation with the corresponding primary effector to a final concentration of 5 mM (dark purple and dark blue). Data are mean ± SD, n = 3, *p < 0.05, **p < 0.01, ***p ≤ 0.001, ****p ≤ 0.0001, unpaired two-tailed t-test. Source data are provided as a Source Data file. All strains used in this study are listed in Supplementary Table 7. E. coli TOP10 (Life Technologies) was used for cloning and plasmid propagation. For single time-point fluorescence measurements and flow cytometric analyses, bacterial strains were propagated in Luria-Bertani (LB) medium. To determine the dose–responses and to evaluate inducer TR cross-reactivity, C. necator was cultivated in MM containing 1 g/L NH4Cl, 9 g/L Na2HPO4·12H2O, 1.5 g/L KH2PO4, 0.2 g/L MgSO4·7H2O, 0.02 g/L CaCl2·2H2O and 0.0012 g/L (NH4)5[Fe(C6H4O7)2] with 1 mL/L trace element solution SL7 (1.3 mL/L 25% (w/v) HCl, 0.07 g/L ZnCl2, 0.1 g/L MnCl2·4H2O, 0.062 g/L H3BO3, 0.190 g/L CoCl2·6H2O, 0.017 g/L CuCl2·2H2O, 0.024 g/L NiCl2·6H2O and 0.036 g/L Na2MoO4·2H2O) supplemented with 0.4% (w/v) sodium gluconate. If required, antibiotics were added to the growth medium at the following concentrations: 12.5 µg/mL tetracycline or 25 µg/mL chloramphenicol for E. coli, 50 µg/mL chloramphenicol for C. necator and 25 µg/mL tetracycline for P. putida. For solid media preparation, 15 g/L agar was added.

Assay [5] concerns the target T3, FdsR (Cupriavidus necator, UniProt Q0KDY4).
T3 construct: native full-length gene, divergent to operon starting at H16_RS03165; reporter plasmid pEH134 (plasmid assigned by list order)
T3 sequence (Q0KDY4 1-364): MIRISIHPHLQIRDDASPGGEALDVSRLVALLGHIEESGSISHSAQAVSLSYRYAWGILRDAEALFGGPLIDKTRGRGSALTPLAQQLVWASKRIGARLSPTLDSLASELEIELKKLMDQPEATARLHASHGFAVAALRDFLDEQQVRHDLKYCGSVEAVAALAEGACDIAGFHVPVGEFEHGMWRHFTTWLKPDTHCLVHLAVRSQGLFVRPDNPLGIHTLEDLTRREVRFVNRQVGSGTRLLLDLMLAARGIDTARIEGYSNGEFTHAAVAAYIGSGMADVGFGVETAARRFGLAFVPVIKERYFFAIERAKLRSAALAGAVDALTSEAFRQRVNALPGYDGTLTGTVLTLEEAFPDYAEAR
Description: cell-based. Further details: RFP reporter induction by transcription factor biosensor, single time-point fluorescence in LB, relative to primary effector. Particulars: Escherichia coli TOP10; relative to primary effector, E. coli, LB; read-out: % activation.
Excerpt: as §2

Assay [6] concerns the target T4, NahR (Cupriavidus necator, UniProt G0EUZ9).
T4 construct: native full-length gene, divergent to operon starting at H16_RS08125; reporter plasmid pEH042 (plasmid assigned by list order); not the P. putida NahR
T4 sequence (G0EUZ9 1-300): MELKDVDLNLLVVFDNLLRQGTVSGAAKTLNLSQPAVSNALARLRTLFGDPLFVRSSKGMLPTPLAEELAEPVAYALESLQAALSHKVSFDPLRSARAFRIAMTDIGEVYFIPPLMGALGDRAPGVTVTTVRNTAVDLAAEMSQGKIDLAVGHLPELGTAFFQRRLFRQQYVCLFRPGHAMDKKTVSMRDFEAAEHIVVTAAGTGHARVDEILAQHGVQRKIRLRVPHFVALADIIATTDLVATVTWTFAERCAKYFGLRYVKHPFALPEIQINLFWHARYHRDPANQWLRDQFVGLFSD
Nature of the assay: RFP reporter dose-response in C. necator H16, Hill fit. It counts as cell-based. The note with it: read-out: Km^b.

The target in assay [7] is T2, BenM. The description is as above. It is filed as cell-based. The note with it: read-out: Km^b.
Description: RFP reporter dose-response in C. necator H16, Hill fit on BenM
The test system of assay [8] is T5, TtdR.
T5 construct: native full-length gene, divergent to operon starting at H16_RS10665; reporter plasmid pEH083 (plasmid assigned by list order)
The description is as above. It counts as cell-based, Cupriavidus necator. Particulars: inducer concentration for half-maximal activation; extracellular inducer, minimal medium, 30 °C, 80 min; whole cells with chromosomal regulator copy; read-out: Km^b.
Description: RFP reporter dose-response in C. necator H16, Hill fit on TtdR

Where a name gives a salt, the structure may show the parent alone.

Regarding `O=C(O)C(=O)c1ccccc1` [compound 4, Phenylglyoxylate], the EC50 in assay [1] was found to be 595 ± 133 µM. Further, the activity at 5000 µM in assay [2] came to 17%; in assay [3] it was 52%; in assay [4], 0.19%; in assay [5], 0%.
As for `O=C(O)c1ccccc1O` [compound 5, Salicylate], the EC50 in assay [6] was 2.12 ± 0.49 µM.
As for `O=C(O)c1ccccc1` [compound 6, Benzoate], in assay [7], the EC50 worked out at 12.6 ± 0.8 µM.
For the molecule `O=C(O)C(O)C(O)C(=O)O` (centres unmarked) [compound 7, Tartrate], in assay [8], the EC50 amounted to 61500 ± 22900 µM.
